Reference: article PMC12728616, “Regioselective Glycosylation of Fluorine-18-Labeled Sorbitol for Enhanced Bacterial Detection In Vivo Using PET” (JACS Au, 2025)

How the values were obtained:
[1] = system: Streptococcus pyogenes; experiment: In vitro uptake of 18F-tracers by bacteria; format: cell-based; settings: S. pyogenes; 37 °C, 90 min
Protocol: (§1) In vitro evaluation of ^18F-tracers was conducted according to our established procedure. Briefly, bacteria were incubated overnight at 37 °C, subcultured into a fresh medium at an initial OD600 of 0.05, and then allowed to reach the mid log phase (OD600 ∼ 0.4). The cultures were subsequently incubated with ^18F-tracers (final concentration: 0.1 MBq/mL) at 37 °C for 90 min. Subsequently, 300 μL aliquots of these cultures were centrifuged at 13,200 rpm for 6 min. The resulting pellets were washed with 300 μL of phosphate-buffered saline (PBS). The radioactivity of the pellets and supernatants was measured using a gamma counter. Uptake values were normalized to colony-forming units (CFUs).

[2] = system: Enterococcus faecalis; experiment: In vitro uptake of 18F-tracers by bacteria; format: cell-based; settings: E. faecalis; 37 °C, 90 min
Protocol: as §1

OC[C@@H](O)[C@@H](O)[C@H](O[C@H]1O[C@H](CO)[C@@H](O)[C@H](O)[C@H]1O)[C@@H]([18F])CO [[18F]FNT, 2-deoxy-2-[18F]fluoro-D-nigeritol]
in vitro uptake [1]: low
in vitro uptake [2]: moderate uptake
